{
  "source": "paper PMC12209991",
  "about": "(Clinical Pharmacology in Drug Development, 2025)",
  "key": {"[1]": {"system": "CYP3A4", "assay": "clinical", "conditions": "human, in vivo, po; for AUC(0-inf): AUCinf; for AUC(0-inf) / AUC(0-t) / Cmax: N=12; for AUC(0-t): AUClast"}, "[2]": {"system": "CYP3A4"}, "[3]": {"conditions": "2 mg, GLSM, midazolam 2 mg single oral dose without RBN-3143 (day 1)"}, "[4]": {"conditions": "2 mg, geometric mean (Geo CV%), midazolam 2 mg single oral dose without RBN-3143 (day 1)"}, "[5]": {"conditions": "2 mg, mean (SD), midazolam 2 mg single oral dose without RBN-3143 (day 1)"}, "[6]": {"conditions": "GLSM, midazolam 2 mg single oral dose with RBN-3143 300 mg BID at steady state (day 16)"}, "[7]": {"conditions": "geometric mean (Geo CV%), midazolam 2 mg single oral dose with RBN-3143 300 mg BID at steady state (day 16)"}, "[8]": {"conditions": "mean (SD), midazolam 2 mg single oral dose with RBN-3143 300 mg BID at steady state (day 16)"}, "[9]": {"conditions": "midazolam with RBN-3143 / without RBN-3143 (300 mg BID for 14 days)"}, "[10]": {"conditions": "midazolam with RBN-3143 / without RBN-3143 (300 mg BID for 14 days), listed as midazolam"}},
  "note": "Read-outs that look alike come from different tables or passages of the source.",
  "data": [
    {"smiles": "Cc1ncc2n1-c1ccc(Cl)cc1C(c1ccccc1F)=NC2", "note": "[Midazolam, midazolam]", "values": [
      {"measurement": "AUC(0-inf)", "setting": "[1]; [3]", "result": 20.8, "unit": "ng·h/mL"},
      {"measurement": "AUC(0-inf)", "setting": "[1]; [4]", "result": 20.8, "unit": "ng·h/mL"},
      {"measurement": "AUC(0-inf)", "setting": "[1]; [5]", "result": 22.2, "unit": "ng·h/mL"},
      {"measurement": "AUC(0-t)", "setting": "[1]; [3]", "result": 19.8, "unit": "ng·h/mL"},
      {"measurement": "AUC(0-t)", "setting": "[1]; [4]", "result": 19.8, "unit": "ng·h/mL"},
      {"measurement": "AUC(0-t)", "setting": "[1]; [5]", "result": 21.2, "unit": "ng·h/mL"},
      {"measurement": "Cmax", "setting": "[1]; [3]", "result": 9.88, "unit": "ng/mL"},
      {"measurement": "Cmax", "setting": "[1]; [4]", "result": 9.87, "unit": "ng/mL"},
      {"measurement": "Cmax", "setting": "[1]; [5]", "result": 10.3, "unit": "ng/mL"},
      {"measurement": "half-life", "setting": "[1]; 2 mg, t1/2, geometric mean (Geo CV%), midazolam 2 mg single oral dose without RBN-3143 (day 1)", "result": 3.05, "unit": "h"},
      {"measurement": "half-life", "setting": "[1]; 2 mg, t1/2, mean (SD), midazolam 2 mg single oral dose without RBN-3143 (day 1)", "result": 3.29, "unit": "h"},
      {"measurement": "AUC(0-inf)", "setting": "[1]; [6]", "result": 18.3, "unit": "ng·h/mL"},
      {"measurement": "AUC(0-inf)", "setting": "[1]; [7]", "result": 18.3, "unit": "ng·h/mL"},
      {"measurement": "AUC(0-inf)", "setting": "[1]; [8]", "result": 19.9, "unit": "ng·h/mL"},
      {"measurement": "AUC(0-t)", "setting": "[1]; [6]", "result": 17.2, "unit": "ng·h/mL"},
      {"measurement": "AUC(0-t)", "setting": "[1]; [7]", "result": 17.2, "unit": "ng·h/mL"},
      {"measurement": "AUC(0-t)", "setting": "[1]; [8]", "result": 18.6, "unit": "ng·h/mL"},
      {"measurement": "Cmax", "setting": "[1]; [6]", "result": 9.11, "unit": "ng/mL"},
      {"measurement": "Cmax", "setting": "[1]; [7]", "result": 9.11, "unit": "ng/mL"},
      {"measurement": "Cmax", "setting": "[1]; [8]", "result": 9.76, "unit": "ng/mL"},
      {"measurement": "half-life", "setting": "[1]; t1/2, geometric mean (Geo CV%), midazolam 2 mg single oral dose with RBN-3143 300 mg BID at steady state (day 16)", "result": 3.09, "unit": "h"},
      {"measurement": "half-life", "setting": "[1]; t1/2, mean (SD), midazolam 2 mg single oral dose with RBN-3143 300 mg BID at steady state (day 16)", "result": 3.49, "unit": "h"},
      {"measurement": "subjects with decreased exposure to oral midazolam", "setting": "[2]; after RBN-3143 300 mg BID to steady-state", "result": "9/12"},
      {"measurement": "increase of midazolam Cmax in 1 subject against the trend", "setting": "[2]; in the presence of RBN-3143", "result": 3, "unit": "fold"},
      {"measurement": "subjects showing increased midazolam AUCinf", "setting": "[2]; in the presence of RBN-3143", "result": "3 subjects out of 12"},
      {"measurement": "subjects showing increased midazolam Cmax", "setting": "[2]; in the presence of RBN-3143", "result": "2 subjects out of 12"},
      {"measurement": "AUCinf GLSM ratio (90% CI)", "setting": "[2]; [9]", "result": "… … 0.88 (0.76, 1.01)"},
      {"measurement": "AUClast GLSM ratio (90% CI)", "setting": "[2]; [9]", "result": "… … 0.87 (0.75, 1.01)"},
      {"measurement": "Cmax GLSM ratio (90% CI)", "setting": "[2]; [9]", "result": "… … 0.92 (0.74, 1.16)"},
      {"measurement": "AUCinf GLSM ratio (90% CI)", "setting": "[2]; [10]", "result": 0.88},
      {"measurement": "Cmax GLSM ratio (90% CI)", "setting": "[2]; [10]", "result": 0.92}
    ]}
  ]
}
